Results reported in ChEMBL document CHEMBL3885861, “Open TG-GATES”.

Species on record: Rattus norvegicus
Assay: Open TG-GATES - Regimen: Single
Format: toxicity, organism-based, Sprague-Dawley
Set-up: regimen Single, gender Male, age 6 weeks
Conditions: in vivo, po, 30 mg/kg, route gavage, dose level Low; for APTT / Bas / Eos / Fbg / Hb / Ht / Lym / MCHC / MCV / Mono / Neu / PT / Plat / RBC / Ret / WBC: tissue Blood; for KIDNEY_L / KIDNEY_R / KIDNEY_TOTAL: tissue Kidney; for LIVER: tissue Liver; for ALP / ALT / AST / BUN / CRE / Ca / Cl / DBIL / GLC / IP / K / LDH / Na / PL / RALB / TBIL / TC / TG / TP / gamma-GTP: tissue Plasma

## CS(=O)(=O)Nc1ccc([N+](=O)[O-])cc1Oc1ccccc1 [NIMESULIDE]
3 h
  TERMINAL_BW: 200.4 g
  APTT: 16.6 s
  Bas: 0%
  Eos: 1%
  Fbg: 231 mg/dL
  Hb: 13.1 g/dL
  Ht: 39.1%
  Lym: 80.8%
  MCHC: 33.6%
  MCV: 63.4 fL
  Mono: 5%
  Neu: 13.4%
  PT: 12.5 s
  Plat: 127.7 x10_4/uL
  RBC: 616.4 x10_4/ul
  Ret: 11.7%
  WBC: 116.6 x10_2/uL
  KIDNEY_L: 0.9 g
  KIDNEY_R: 0.9 g
  KIDNEY_TOTAL: 1.8 g
  LIVER: 9 g
  ALP: 803 IU/L
  ALT: 39.6 IU/L
  AST: 69.8 IU/L
  BUN: 16.6 mg/dL
  CRE: 0.6 mg/dL
  Ca: 10.9 mg/dL
  Cl: 107.6 meq/L
  DBIL: 0.064 mg/dL
  GLC: 208.4 mg/dL
  IP: 9.2 mg/dL
  K: 5 meq/L
  LDH: 106 IU/L
  Na: 141.2 meq/L
  PL: 134.4 mg/dL
  RALB: 3.7 g/dL
  TBIL: 0.3 mg/dL
  TC: 78.2 mg/dL
  TG: 47.8 mg/dL
  TP: 5.2 g/dL
  gamma-GTP: 1.6 IU/L
6 h
  TERMINAL_BW: 196.1 g
  APTT: 17.4 s
  Bas: 0%
  Eos: 1%
  Fbg: 201.6 mg/dL
  Hb: 13.7 g/dL
  Ht: 40.5%
  Lym: 74.6%
  MCHC: 33.8%
  MCV: 65.6 fL
  Mono: 9.2%
  Neu: 15%
  PT: 12.6 s
  Plat: 111.4 x10_4/uL
  RBC: 618 x10_4/ul
  Ret: 10.6%
  WBC: 84.5 x10_2/uL
  KIDNEY_L: 0.9 g
  KIDNEY_R: 0.9 g
  KIDNEY_TOTAL: 1.8 g
  LIVER: 8.3 g
  ALP: 790 IU/L
  ALT: 33 IU/L
  AST: 62.2 IU/L
  BUN: 13.8 mg/dL
  CRE: 0.6 mg/dL
  Ca: 10.7 mg/dL
  Cl: 106.6 meq/L
  DBIL: 0.054 mg/dL
  GLC: 200 mg/dL
  IP: 10.2 mg/dL
  K: 5 meq/L
  LDH: 86.8 IU/L
  Na: 139.8 meq/L
  PL: 119.6 mg/dL
  RALB: 3.7 g/dL
  TBIL: 0.4 mg/dL
  TC: 68 mg/dL
  TG: 56.6 mg/dL
  TP: 5.2 g/dL
  gamma-GTP: 1.2 IU/L
9 h
  TERMINAL_BW: 200.7 g
  APTT: 16.7 s
  Bas: 0%
  Eos: 0.6%
  Fbg: 207.8 mg/dL
  Hb: 13.2 g/dL
  Ht: 39.5%
  Lym: 81.4%
  MCHC: 33.5%
  MCV: 66.3 fL
  Mono: 8.2%
  Neu: 10%
  PT: 12.3 s
  Plat: 111.8 x10_4/uL
  RBC: 596.2 x10_4/ul
  Ret: 11%
  WBC: 78.5 x10_2/uL
  KIDNEY_L: 1 g
  KIDNEY_R: 1 g
  KIDNEY_TOTAL: 1.9 g
  LIVER: 8.4 g
  ALP: 888.4 IU/L
  ALT: 30.8 IU/L
  AST: 61 IU/L
  BUN: 15 mg/dL
  CRE: 0.5 mg/dL
  Ca: 10.6 mg/dL
  Cl: 108 meq/L
  DBIL: 0.014 mg/dL
  GLC: 201 mg/dL
  IP: 10.2 mg/dL
  K: 4.9 meq/L
  LDH: 99 IU/L
  Na: 139.4 meq/L
  PL: 135.8 mg/dL
  RALB: 3.9 g/dL
  TBIL: 0.4 mg/dL
  TC: 78.2 mg/dL
  TG: 41 mg/dL
  TP: 5.3 g/dL
  gamma-GTP: 1.4 IU/L
24 h
  TERMINAL_BW: 212.5 g
  APTT: 17.2 s
  Bas: 0%
  Eos: 1.2%
  Fbg: 199.2 mg/dL
  Hb: 13.6 g/dL
  Ht: 40.7%
  Lym: 71.2%
  MCHC: 33.4%
  MCV: 63.8 fL
  Mono: 8.2%
  Neu: 19.4%
  PT: 11.7 s
  Plat: 109.8 x10_4/uL
  RBC: 638.4 x10_4/ul
  Ret: 10.3%
  WBC: 124.8 x10_2/uL
  KIDNEY_L: 0.9 g
  KIDNEY_R: 1 g
  KIDNEY_TOTAL: 1.9 g
  LIVER: 10.6 g
  ALP: 968.4 IU/L
  ALT: 44 IU/L
  AST: 68.8 IU/L
  BUN: 19.2 mg/dL
  CRE: 0.6 mg/dL
  Ca: 10.8 mg/dL
  Cl: 106 meq/L
  DBIL: 0.012 mg/dL
  GLC: 190.6 mg/dL
  IP: 7.6 mg/dL
  K: 4.9 meq/L
  LDH: 99.2 IU/L
  Na: 140.2 meq/L
  PL: 151.6 mg/dL
  RALB: 4 g/dL
  TBIL: 0.3 mg/dL
  TC: 81 mg/dL
  TG: 90 mg/dL
  TP: 5.5 g/dL
  gamma-GTP: 2 IU/L
